Experimental data reported in patent EP4745137A1 (Gluetacs Therapeutics (Shanghai) Co., Ltd., priority 2023, dated 2025).
pIC50: −log10 of the molar value.

Key:
IKZF1 = biological target: T1, IKZF1 (Homo sapiens, UniProt Q13422+Q96SW2); assay: Western-blot assay of substrate protein degradation in hPBMCs, IKZF1; assay type: cell-based; conditions: 24 hours of compound treatment, compounds tested at 50 nM and 500 nM (concentration of the table not stated)
T1 construct: endogenous in cells; host or cells: hPBMCs (Milecell Biotechnologies)

GSPT1 = biological target: T2, GSPT1 (Homo sapiens, UniProt P15170+Q96SW2); assay: Western-blot assay of substrate protein degradation in hPBMCs, GSPT1; assay type: cell-based; conditions: 24 hours of compound treatment, compounds tested at 50 nM and 500 nM (concentration of the table not stated)
T2 construct: endogenous in cells; host or cells: hPBMCs (Milecell Biotechnologies)

IKZF3 = biological target: T3, IKZF3 (Homo sapiens, UniProt Q96SW2+Q9UKT9); assay: Western-blot assay of substrate protein degradation in hPBMCs, IKZF3; assay type: cell-based; conditions: 24 hours of compound treatment, compounds tested at 50 nM and 500 nM (concentration of the table not stated)
T3 construct: endogenous in cells; host or cells: hPBMCs (Milecell Biotechnologies)

[1] = tested on: Human acute T lymphocytic leukemia cells (Molt-4); assay: Tumor cell proliferation inhibition (CellTiter-Meiluncell Luminescent Cell Viability Assay), Molt-4; conditions: MOLT-4, 96 h, read-out: inhibitory activity (IC50, nM) against tumor cells proliferation, Molt 4
NCI-H1975 = assay: Tumor cell proliferation inhibition (CellTiter-Meiluncell Luminescent Cell Viability Assay), NCI-H1975; conditions: Homo sapiens, NCI-H1975, 96 h, read-out: inhibitory activity (IC50, nM) against tumor cells proliferation, H1975
IKZF2 = biological target: T4, IKZF2 (Homo sapiens, UniProt Q96SW2+Q9UKS7); assay: Western-blot assay of substrate protein degradation in hPBMCs, IKZF2; assay type: cell-based; conditions: 24 hours of compound treatment, compounds tested at 50 nM and 500 nM (concentration of the table not stated)
T4 construct: endogenous in cells; host or cells: hPBMCs (Milecell Biotechnologies)

TMD8 = assay: Tumor cell proliferation inhibition (CellTiter-Meiluncell Luminescent Cell Viability Assay), TMD8; conditions: Homo sapiens, TMD8, 96 h, read-out: inhibitory activity (IC50, nM) against tumor cells proliferation, TMD8
Procedure: The tumor cells used herein were cultured in a cell culture medium listed in table 2 at 37°C in an incubator with 5% CO2. Prior to experimentation, all cell lines used were correctly identified by STR profiling, and tested negative for mycoplasma contamination using a mycoplasma detection kit through routine screenings.
On the following day, the test compounds of the present disclosure were subjected to serial dilution. […] Subsequently, 0.5 µL of the test compound dilution was transferred into the 96-well plate containing the cells, with each well containing 100 µL of cell culture medium. […] Into the 96-well plate, the diluted test compounds and corresponding detection reagents were added, resulting in final test compound concentrations of 500 nM and 10 nM, respectively. The experimental procedure is described below using the diluted 2 µM test compound as an example.
After the cells were treated with the compounds of the present disclosure for a specified period (the treatment durations were shown in Table 3), the cell viability assay reagent was added to the culture medium according to the kit's instructions to determine cell viability. […] All controls were treated using the same procedure as the compounds of the present disclosure. The growth inhibition curves for the compounds of the present disclosure were plotted using Prism GraphPad software, and the IC50 values were calculated therefrom.

[2] = biological target: T5, human Cereblon WT GST-tagged protein (Homo sapiens, UniProt Q96SW2); assay: CRBN-binding affinity by HTRF (CEREBLON BINDING kit); conditions: HTRF inhibitory activity, CEREBLON BINDING kit; read-out: HTRF IC50
T5 construct: purchased CISBIO 64BDCRBNPEH

WEE1 = biological target: T6, WEE1 (Homo sapiens, UniProt P30291+Q96SW2); assay: Western-blot assay of substrate protein degradation in hPBMCs, WEE1; assay type: cell-based; conditions: 24 hours of compound treatment, compounds tested at 50 nM and 500 nM (concentration of the table not stated)
T6 construct: endogenous in cells; host or cells: hPBMCs (Milecell Biotechnologies)

CK1α = biological target: T7, CK1α (Homo sapiens, UniProt P48729+Q96SW2); assay: Western-blot assay of substrate protein degradation in hPBMCs, CK1α; assay type: cell-based; conditions: 24 hours of compound treatment, compounds tested at 50 nM and 500 nM (concentration of the table not stated)
T7 construct: endogenous in cells; host or cells: hPBMCs (Milecell Biotechnologies)

[3] = tested on: Human breast cancer cells (MDA-MB-231); assay: Tumor cell proliferation inhibition (CellTiter-Meiluncell Luminescent Cell Viability Assay), MDA-MB-231; conditions: MDA-MB-231, 96 h, read-out: inhibitory activity (IC50, nM) against tumor cells proliferation, MDA-MB-231

T3 sequence (Q9UKT9 whole entry): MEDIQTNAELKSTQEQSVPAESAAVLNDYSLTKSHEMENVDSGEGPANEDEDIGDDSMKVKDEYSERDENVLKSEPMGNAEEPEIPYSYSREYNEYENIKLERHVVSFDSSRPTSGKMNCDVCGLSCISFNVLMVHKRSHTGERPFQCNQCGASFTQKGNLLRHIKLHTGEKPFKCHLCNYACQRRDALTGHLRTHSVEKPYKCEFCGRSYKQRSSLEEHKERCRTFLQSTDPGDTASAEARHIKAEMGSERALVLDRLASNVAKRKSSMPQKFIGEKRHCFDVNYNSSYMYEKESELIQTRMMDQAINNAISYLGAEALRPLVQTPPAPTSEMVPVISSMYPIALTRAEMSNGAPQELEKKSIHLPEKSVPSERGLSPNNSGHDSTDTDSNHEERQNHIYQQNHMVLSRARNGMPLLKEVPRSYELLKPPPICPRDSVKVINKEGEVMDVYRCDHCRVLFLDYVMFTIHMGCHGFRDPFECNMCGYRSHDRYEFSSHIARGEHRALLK
T3 sequence (Q96SW2 whole entry): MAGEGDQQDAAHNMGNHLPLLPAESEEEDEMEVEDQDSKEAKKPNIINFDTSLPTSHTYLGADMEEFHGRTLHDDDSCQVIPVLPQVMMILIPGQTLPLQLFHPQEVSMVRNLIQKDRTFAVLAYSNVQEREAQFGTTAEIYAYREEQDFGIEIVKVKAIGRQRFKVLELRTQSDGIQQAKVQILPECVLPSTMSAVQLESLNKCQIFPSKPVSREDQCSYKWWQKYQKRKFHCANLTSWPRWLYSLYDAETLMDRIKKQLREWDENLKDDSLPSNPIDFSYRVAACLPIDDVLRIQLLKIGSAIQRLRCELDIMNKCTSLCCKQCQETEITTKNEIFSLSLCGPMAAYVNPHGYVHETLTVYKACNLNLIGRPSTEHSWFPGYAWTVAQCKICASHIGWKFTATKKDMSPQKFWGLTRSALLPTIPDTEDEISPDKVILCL
T3 sequence (Q16531 whole entry partner): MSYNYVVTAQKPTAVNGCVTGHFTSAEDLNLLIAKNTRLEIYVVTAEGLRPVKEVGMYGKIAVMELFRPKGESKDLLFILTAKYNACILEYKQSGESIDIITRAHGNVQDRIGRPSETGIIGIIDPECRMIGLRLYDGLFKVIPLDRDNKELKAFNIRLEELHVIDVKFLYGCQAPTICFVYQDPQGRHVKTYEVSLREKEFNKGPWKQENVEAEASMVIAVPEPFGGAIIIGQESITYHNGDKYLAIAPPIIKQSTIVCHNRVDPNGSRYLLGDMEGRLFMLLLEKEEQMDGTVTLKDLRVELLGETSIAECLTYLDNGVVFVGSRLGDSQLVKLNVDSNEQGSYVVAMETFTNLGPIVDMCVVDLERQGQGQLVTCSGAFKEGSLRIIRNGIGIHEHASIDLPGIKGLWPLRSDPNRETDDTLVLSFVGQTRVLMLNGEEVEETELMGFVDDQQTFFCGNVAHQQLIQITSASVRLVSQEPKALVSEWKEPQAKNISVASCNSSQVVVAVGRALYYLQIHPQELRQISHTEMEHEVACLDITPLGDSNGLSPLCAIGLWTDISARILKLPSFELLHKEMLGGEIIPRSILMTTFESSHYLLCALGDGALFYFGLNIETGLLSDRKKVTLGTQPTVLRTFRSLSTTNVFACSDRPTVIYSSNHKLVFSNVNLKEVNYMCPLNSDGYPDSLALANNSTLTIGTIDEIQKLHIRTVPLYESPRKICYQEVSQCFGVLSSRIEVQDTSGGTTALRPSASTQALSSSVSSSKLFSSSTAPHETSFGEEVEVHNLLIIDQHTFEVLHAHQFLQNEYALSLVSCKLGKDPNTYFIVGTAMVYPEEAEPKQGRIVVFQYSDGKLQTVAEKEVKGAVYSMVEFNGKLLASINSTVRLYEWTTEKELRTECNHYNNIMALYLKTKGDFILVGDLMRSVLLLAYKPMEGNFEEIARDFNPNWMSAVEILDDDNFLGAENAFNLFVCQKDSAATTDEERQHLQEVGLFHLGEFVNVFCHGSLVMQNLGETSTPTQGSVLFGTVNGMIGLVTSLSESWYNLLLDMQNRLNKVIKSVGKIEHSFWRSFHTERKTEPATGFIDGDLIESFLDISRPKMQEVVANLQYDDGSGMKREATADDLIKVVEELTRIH
T2 sequence (P15170 whole entry): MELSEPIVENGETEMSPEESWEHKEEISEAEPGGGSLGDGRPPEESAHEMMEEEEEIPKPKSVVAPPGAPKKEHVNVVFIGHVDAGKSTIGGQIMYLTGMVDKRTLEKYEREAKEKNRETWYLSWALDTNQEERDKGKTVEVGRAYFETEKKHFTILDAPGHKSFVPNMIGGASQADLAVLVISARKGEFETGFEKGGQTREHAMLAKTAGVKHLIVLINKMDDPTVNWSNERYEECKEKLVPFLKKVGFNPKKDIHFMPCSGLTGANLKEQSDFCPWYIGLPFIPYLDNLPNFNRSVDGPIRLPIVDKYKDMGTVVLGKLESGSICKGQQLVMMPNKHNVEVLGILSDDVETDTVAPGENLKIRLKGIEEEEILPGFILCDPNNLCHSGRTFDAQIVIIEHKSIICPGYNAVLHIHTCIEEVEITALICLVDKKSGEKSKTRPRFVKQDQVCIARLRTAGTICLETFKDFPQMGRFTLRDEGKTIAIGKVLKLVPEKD
T2 sequence (Q96SW2 whole entry): as the sequence (Q96SW2 whole entry) above
T2 sequence (Q16531 whole entry partner): as the sequence (Q16531 whole entry partner) above
T6 sequence (P30291 whole entry): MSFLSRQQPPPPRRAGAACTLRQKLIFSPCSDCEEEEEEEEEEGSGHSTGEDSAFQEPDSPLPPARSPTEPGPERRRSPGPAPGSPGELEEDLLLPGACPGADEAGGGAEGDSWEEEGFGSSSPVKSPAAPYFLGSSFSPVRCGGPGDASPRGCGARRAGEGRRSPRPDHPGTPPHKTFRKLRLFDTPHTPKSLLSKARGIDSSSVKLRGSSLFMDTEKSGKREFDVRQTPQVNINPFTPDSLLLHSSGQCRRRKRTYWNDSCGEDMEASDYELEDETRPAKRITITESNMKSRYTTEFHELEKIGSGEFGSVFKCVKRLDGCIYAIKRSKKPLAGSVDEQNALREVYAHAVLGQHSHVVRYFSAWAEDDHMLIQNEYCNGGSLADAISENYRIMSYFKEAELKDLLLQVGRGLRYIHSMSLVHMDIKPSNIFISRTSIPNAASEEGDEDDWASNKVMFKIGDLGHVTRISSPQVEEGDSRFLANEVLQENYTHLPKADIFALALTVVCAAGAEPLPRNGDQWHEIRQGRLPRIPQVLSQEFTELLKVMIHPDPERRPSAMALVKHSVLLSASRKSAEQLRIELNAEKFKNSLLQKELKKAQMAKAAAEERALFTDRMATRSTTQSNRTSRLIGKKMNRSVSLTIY
T6 sequence (Q96SW2 whole entry): as the sequence (Q96SW2 whole entry) above
T6 sequence (Q16531 whole entry partner): as the sequence (Q16531 whole entry partner) above
T4 sequence (Q9UKS7 whole entry): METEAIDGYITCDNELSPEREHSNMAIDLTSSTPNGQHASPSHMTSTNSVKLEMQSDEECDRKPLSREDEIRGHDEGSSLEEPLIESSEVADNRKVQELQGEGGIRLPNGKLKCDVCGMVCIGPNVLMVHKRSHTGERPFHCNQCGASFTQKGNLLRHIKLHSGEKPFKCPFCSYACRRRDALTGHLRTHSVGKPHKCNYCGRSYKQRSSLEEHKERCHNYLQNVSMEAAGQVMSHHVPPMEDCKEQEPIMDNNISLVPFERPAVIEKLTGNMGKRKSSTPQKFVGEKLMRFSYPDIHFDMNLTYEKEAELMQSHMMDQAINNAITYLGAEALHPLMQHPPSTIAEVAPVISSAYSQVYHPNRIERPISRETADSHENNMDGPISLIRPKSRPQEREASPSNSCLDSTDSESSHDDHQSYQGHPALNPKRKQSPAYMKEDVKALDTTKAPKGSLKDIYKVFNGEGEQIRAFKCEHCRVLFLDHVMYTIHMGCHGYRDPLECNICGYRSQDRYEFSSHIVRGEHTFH
T4 sequence (Q96SW2 whole entry): as the sequence (Q96SW2 whole entry) above
T4 sequence (Q16531 whole entry partner): as the sequence (Q16531 whole entry partner) above
T1 sequence (Q13422 whole entry): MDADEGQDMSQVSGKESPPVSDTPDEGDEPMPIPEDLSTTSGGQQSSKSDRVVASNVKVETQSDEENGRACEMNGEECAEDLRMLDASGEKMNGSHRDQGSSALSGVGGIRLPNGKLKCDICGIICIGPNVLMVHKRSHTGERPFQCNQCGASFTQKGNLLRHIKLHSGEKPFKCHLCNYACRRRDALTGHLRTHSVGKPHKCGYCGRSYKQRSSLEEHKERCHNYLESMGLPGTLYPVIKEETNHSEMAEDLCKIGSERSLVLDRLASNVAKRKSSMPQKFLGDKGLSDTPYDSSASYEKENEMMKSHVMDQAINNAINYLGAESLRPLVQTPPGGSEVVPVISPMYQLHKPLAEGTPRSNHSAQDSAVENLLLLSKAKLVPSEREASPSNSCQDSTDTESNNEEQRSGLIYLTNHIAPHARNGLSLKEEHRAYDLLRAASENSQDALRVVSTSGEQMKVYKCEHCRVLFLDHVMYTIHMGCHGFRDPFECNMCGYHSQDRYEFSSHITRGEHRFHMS
T1 sequence (Q96SW2 whole entry): as the sequence (Q96SW2 whole entry) above
T1 sequence (Q16531 whole entry partner): as the sequence (Q16531 whole entry partner) above
T5 sequence (Q96SW2 whole entry): as the sequence (Q96SW2 whole entry) above

SMILES | IKZF 1 substrate protein remaining % (IKZF1) | GSPT1 substrate protein remaining % (GSPT1) | IKZF3 substrate protein remaining % (IKZF3) | IC50 [1] | IC50 (NCI-H1975) | IKZF2 substrate protein remaining % (IKZF2) | IC50 (TMD8) | pIC50 [2] | Weel substrate protein remaining % (WEE1) | CK1a substrate protein remaining % (CK1α) | IC50 [3]
Cc1nc(C2=CCN(Cc3ccc4c(c3)CN(C3CCC(=O)NC3=O)C4=O)CC2)c2ccsc2n1 (stereo not shown) [GT-04718, 3-(5-((4-(2-methylthieno[2,3-d]pyrimidin-4-yl)-3,6-dihydropyridin-1(2H)-yl)methyl)-1-oxoisoindolin-2-yl)piperidine-2,6-dione] | A (0% ≤ substrate protein remaining % ≤ 80%) | A (0% ≤ substrate protein remaining % ≤ 80%) | A (0% ≤ substrate protein remaining % ≤ 80%) | 1 to 5 nM | 10 to 50 nM | A (0% ≤ substrate protein remaining % ≤ 80%) | 10 to 50 nM | 6.00 to 6.30 | A (0% ≤ substrate protein remaining % ≤ 80%) | B (80%< substrate protein remaining %≤ 100%) | 5 to 10 nM
O=C1CCC(N2Cc3cc(CN4CCC(c5ccsc5)CC4)ccc3C2=O)C(=O)N1 (stereo not shown) [GT-04586, 3-(1-oxo-5-((4-(thiophen-3-yl)piperidin-1-yl)methyl)isoindolin-2-yl)piperidine-2,6-dione] | B (80%< substrate protein remaining %≤ 100%) | A (0% ≤ substrate protein remaining % ≤ 80%) | B (80%< substrate protein remaining %≤ 100%) | 5 to 10 nM | 100 to 500 nM | A (0% ≤ substrate protein remaining % ≤ 80%) | 100 to 500 nM | 6.00 to 6.30 | B (80%< substrate protein remaining %≤ 100%) | B (80%< substrate protein remaining %≤ 100%) | 10 to 50 nM
Cc1cc2c(C3=CCN(Cc4ccc5c(c4)CN(C4CCC(=O)NC4=O)C5=O)CC3)ncnc2s1 (stereo not shown) [GT-04704, 3-(5-((4-(6-methylthieno[2,3-d]pyrimidin-4-yl)-3,6-dihydropyridin-1(2H)-yl)methyl)-1-oxoisoindolin-2-yl)piperidine-2,6-dione] | A (0% ≤ substrate protein remaining % ≤ 80%) | A (0% ≤ substrate protein remaining % ≤ 80%) | A (0% ≤ substrate protein remaining % ≤ 80%) | 1 to 5 nM | 10 to 50 nM | A (0% ≤ substrate protein remaining % ≤ 80%) | 10 to 50 nM | > 6.30 | A (0% ≤ substrate protein remaining % ≤ 80%) | A (0% ≤ substrate protein remaining % ≤ 80%) | 10 to 50 nM
Cc1ccsc1C1=CCN(Cc2ccc3c(c2F)CN(C2CCC(=O)NC2=O)C3=O)CC1 (stereo not shown) [GT-04729, 3-(4-fluoro-5-((4-(3-methylthiophen-2-yl)-3,6-dihydropyridin-1(2H)-yl)methyl)-1-oxoisoindolin-2-yl)piperidine-2,6-dione] | A (0% ≤ substrate protein remaining % ≤ 80%) | A (0% ≤ substrate protein remaining % ≤ 80%) | A (0% ≤ substrate protein remaining % ≤ 80%) | 1 to 5 nM | 10 to 50 nM | A (0% ≤ substrate protein remaining % ≤ 80%) | 10 to 50 nM | 6.00 to 6.30 | A (0% ≤ substrate protein remaining % ≤ 80%) | B (80%< substrate protein remaining %≤ 100%) | 1 to 5 nM
Cn1cc(C2=CCN(Cc3ccc4c(c3)CN(C3CCC(=O)NC3=O)C4=O)CC2)c2ccc(F)cc21 (stereo not shown) [GT-04723, 3-(5-((4-(6-fluoro-1-methyl-1H-indol-3-yl)-3,6-dihydropyridin-1(2H)-yl)methyl)-1-oxoisoindolin-2-yl)piperidine-2,6-dione] | A (0% ≤ substrate protein remaining % ≤ 80%) | A (0% ≤ substrate protein remaining % ≤ 80%) | A (0% ≤ substrate protein remaining % ≤ 80%) | 1 to 5 nM | 10 to 50 nM | A (0% ≤ substrate protein remaining % ≤ 80%) | 10 to 50 nM | > 6.30 | A (0% ≤ substrate protein remaining % ≤ 80%) | A (0% ≤ substrate protein remaining % ≤ 80%) | 5 to 10 nM
Cc1cc(C2CCN(Cc3ccc4c(c3)CN(C3CCC(=O)NC3=O)C4=O)CC2)cs1 (stereo not shown) [GT-04588, 3-(5-((4-(5-methylthiophen-3-yl)piperidin-1-yl)methyl)-1-oxoisoindolin-2-yl)piperidine-2,6-dione] | B (80%< substrate protein remaining %≤ 100%) | A (0% ≤ substrate protein remaining % ≤ 80%) | B (80%< substrate protein remaining %≤ 100%) | 5 to 10 nM | 50 to 100 nM | A (0% ≤ substrate protein remaining % ≤ 80%) | 100 to 500 nM | 5.82 to 6.00 | B (80%< substrate protein remaining %≤ 100%) | B (80%< substrate protein remaining %≤ 100%) | 10 to 50 nM
O=C1CCC(N2Cc3cc(CN4CC=C(c5nccc(Cl)c5Cl)CC4)ccc3C2=O)C(=O)N1 (stereo not shown) [GT-04570, 3-(5-((3,4-dichloro-3',6'-dihydro-[2,4'-bipyridin]-1'(2'H)-yl)methyl)-1-oxoisoindolin-2-yl)piperidine-2,6-dione] | A (0% ≤ substrate protein remaining % ≤ 80%) | A (0% ≤ substrate protein remaining % ≤ 80%) | A (0% ≤ substrate protein remaining % ≤ 80%) | 1 to 5 nM | 10 to 50 nM | A (0% ≤ substrate protein remaining % ≤ 80%) | 10 to 50 nM | 6.00 to 6.30 | A (0% ≤ substrate protein remaining % ≤ 80%) | A (0% ≤ substrate protein remaining % ≤ 80%) | 1 to 5 nM
O=C1CCC(N2Cc3cc(CN4CC(=C5CCOc6cc(F)ccc65)C4)ccc3C2=O)C(=O)N1 (stereo not shown) [GT-04701, 3-(5-((3-(7-fluorochroman-4-ylidene)azetidin-1-yl)methyl)-1-oxoisoindolin-2-yl)piperidine-2,6-dione] | A (0% ≤ substrate protein remaining % ≤ 80%) | A (0% ≤ substrate protein remaining % ≤ 80%) | A (0% ≤ substrate protein remaining % ≤ 80%) | 1 to 5 nM | 50 to 100 nM | A (0% ≤ substrate protein remaining % ≤ 80%) | 50 to 100 nM | > 6.30 | A (0% ≤ substrate protein remaining % ≤ 80%) | A (0% ≤ substrate protein remaining % ≤ 80%) | 10 to 50 nM
